Literature values in patent US20110321180A1, “COMPOSITIONS AND METHODS TO GENERATE PILOSEBACEOUS UNITS” (University of Southern California, priority 2008, published 2011).

B1: noggin: BMP antagonist protein, UniProt: Q13253 (protein, UniProt Q13253 28-232, looked up)
Noggin: QHYLHIRPAPSDNLPLVDLIEHPDPIFDPKEKDLNETLLRSLLGGHYDPGFMATSPPEDRPGGGGGAAGGAEDLAELDQLLRQRPSGAMPSEIKGLEFSEGLAQGKKQRLSKKLRRKLQMWLWSQTFCPVLYAWNDLGSRFWPRYVKVGSCFSKRSCSVPEGMVCKPSKSVHLTVLRWRCQRRGGQRCGWIPIQYPIISECKCSC

Key:
[1] = in published reports
[2] = DMSO

| Molecule | toxicity [1] | solubility [2] | size of hair germs (hair germs) |
| --- | --- | --- | --- |
| c1cc(-c2cnn3cc(-c4ccc(OCCN5CCCCC5)cc4)cnc23)ccn1 [Dorsomorphin] | low toxicity | soluble in DMSO |  |
| B1 |  |  | makes hair germs bigger |
